# Data from patent US11667651B2, “Aminopyridine derivatives as phosphatidylinositol phosphate kinase inhibitors” (HiberCell, Inc., priority 2017, dated 2023).
# Molecular target: T1, PIP4K2A (Homo sapiens, UniProt P48426)
# T1 sequence (P48426 1-406): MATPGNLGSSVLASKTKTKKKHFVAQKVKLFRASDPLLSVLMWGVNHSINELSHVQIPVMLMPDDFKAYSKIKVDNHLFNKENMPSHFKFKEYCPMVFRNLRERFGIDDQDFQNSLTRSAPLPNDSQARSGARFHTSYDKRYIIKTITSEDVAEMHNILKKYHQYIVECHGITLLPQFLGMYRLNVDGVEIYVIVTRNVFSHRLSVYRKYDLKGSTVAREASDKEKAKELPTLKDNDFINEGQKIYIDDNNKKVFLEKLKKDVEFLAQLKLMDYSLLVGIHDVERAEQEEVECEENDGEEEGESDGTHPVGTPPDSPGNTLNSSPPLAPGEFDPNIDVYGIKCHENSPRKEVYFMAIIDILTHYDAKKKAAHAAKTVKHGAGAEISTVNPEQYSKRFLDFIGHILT
# Assay: Kinase Assay PIP4K2 A (Table 2)
# Assay type: biochemical
# Set-up: 4 nM PIP4K2A (full length protein, SignalChem); purchased SignalChem
# Conditions: compounds listed under IC50 bins
# Experimental: Dilution series of the compounds were prepared in DMSO at 100 times the final assay concentration (n1=n0/3 in 10 points). The compounds were further diluted to three times the assay concentration in assay buffer (20 mM MOPS pH 7.2, 25 mM magnesium chloride, 0.005% Tween 20). 6 μL of the diluted compounds were added to a 384 well assay plate followed by 9 μL of a mix consisting of 4 nM PIP4K2A (full length protein, SignalChem) and 100 μM PI(5)P diC8 (Tebu-Bio). Enzyme and compounds were pre-incubated at room temperature for 15 minutes.
# Then 3 μL of a solution containing 60 μM ATP (Promega) in assay buffer was added to the wells containing compound and enzyme and mixing was performed by pipetting several times. The reaction was incubated at room temperature for 1 h. Then 18 μL of ADP-Glo™ Reagent (Promega) was added to stop the kinase reaction and deplete the unconsumed ATP, mixing was performed by pipetting several times. The plate was incubated at room temperature for 40 minutes before addition of 36 μL of Kinase Detection Reagent (Promega) to convert ADP to ATP and introduce luciferase and luciferin to detect ATP. The reaction was incubated at room temperature for 40 minutes before the luminescence was measured in a in a Victor 3V 1420 multilabel counter (Perkin Elmer).
# Percent inhibition of the compounds as compared to dimethyl sulfoxide treated control samples was calculated. Compound concentration versus percent inhibition were fitted to generate IC50 values.
row,SMILES,IC50 [nM]
1,"CC(=O)N(C)c1ccc(-c2ccc(Nc3cccnc3)nc2)cc1 [Example 64, N-methyl-N-(4-(6-(pyridin-3-ylamino)pyridin-3-yl)phenyl)acetamide]",> 1000
2,"CN(C)C(=O)c1ccc(-c2ccc(Nc3cncnc3)nc2)cc1 [Example 32, N,N-dimethyl-4-(6-(pyrimidin-5-ylamino)pyridin-3-yl)benzamide]",100 to 1000
3,"CN(C)C(=O)c1ccc(-c2ccc(Nc3cccnc3)nc2)cc1 [Example 1, N,N-dimethyl-4-(6-(pyridin-3-ylamino)pyridin-3-yl)benzamide]",100 to 1000
4,"CN(C)C(=O)c1ccc(-c2ccc(Nc3cnc4c(c3)N(S(C)(=O)=O)CCO4)nc2)cc1 [Example 217, N,N-dimethyl-4-(6-((1-(methylsulfonyl)-2,3-dihydro-1H-pyrido[2,3-b][1,4]oxazin-7-yl)amino)pyridin-3-yl)bnzamide]",10 to 100
5,"CN(C)C(=O)c1ccc(-c2ccc(Nc3cncc(N(C)S(C)(=O)=O)c3)nc2)cc1 [Example 24, N,N-dimethyl-4-(6-((5-(N-methylmethylsulfonamido)pyridin-3-yl)amino)pyridin-3-yl)benzamide]",10 to 100
6,"CC(C)N(c1cncc(Nc2ccc(-c3ccc(C(=O)N(C)C)cc3)cn2)c1)S(C)(=O)=O [Example 27, 4-(6-((5-(N-isopropylmethylsulfonamido)pyridin-3-yl)amino)pyridin-3-yl)-N,N-dimethylbenzamide]",100 to 1000
7,"CN(C)C(=O)c1ccc(-c2cnc(Nc3cncc(N4CCN(Cc5ccccc5)C4=O)c3)cn2)cc1 [Example 23, 4-(5-((5-(3-benzyl-2-oxoimidazolidin-1-yl)pyridin-3-yl)amino)pyrazin-2-yl)-N,N-dimethylbenzamide]",1 to 10
8,"CN(C)C(=O)c1ccc(-c2ccc(Nc3cncc(C#N)c3)nc2)cc1 [Example 30, 4-(6-((5-cyanopyridin-3-yl)amino)pyridin-3-yl)-N,N-dimethylbenzamide]",100 to 1000
9,"CN(C)C(=O)c1ccc(-c2cnc(Nc3cncc(N4CCCC4=O)c3)cn2)cc1 [Example 19, N,N-dimethyl-4-(5-((5-(2-oxopyrrolidin-1-yl)pyridin-3-yl)amino)pyrazin-2-yl)benzamide]",100 to 1000
10,"Cc1ncc(Nc2ccc(-c3ccc(C(=O)N(C)C)cc3)cn2)cn1 [Example 33, N,N-dimethyl-4-(6-((2-methylpyrimidin-5-yl)amino)pyridin-3-yl)benzamide]",> 1000
11,"CN(C)C(=O)c1ccc(-c2cnc(Nc3cncc(N4CCCC4=O)c3)cn2)cc1F [Example 20, 2-fluoro-N,N-dimethyl-4-(5-((5-(2-oxopyrrolidin-1-yl)pyridin-3-yl)amino)pyrazin-2-yl)benzamide]",100 to 1000
12,"CN(C)C(=O)c1ccc(-c2ccc(Nc3cnccn3)nc2)cc1 [Example 36, N,N-dimethyl-4-(6-(pyrazin-2-ylamino)pyridin-3-yl)benzamide]",> 1000
13,"CN(Cc1ccco1)C(=O)c1ccc(-c2ccc(Nc3cccnc3)nc2)cc1 [Example 69, N-(furan-2-ylmethyl)-N-methyl-4-(6-(pyridin-3-ylamino)pyridin-3-yl)benzamide]",100 to 1000
14,"CN(C)C(=O)c1ccc(-c2ccc(Nc3cncc(CC(=O)NCc4cccnc4)c3)nc2)cc1 [Example 56, N,N-dimethyl-4-(6-((5-(2-oxo-2-((pyridin-3-ylmethyl)amino)ethyl)pyridin-3-yl)amino)pyridin-3-yl)benzamide]",100 to 1000
15,"CN(C)C(=O)c1ccc(-c2ccc(Nc3cncc(N4CCNC4=O)c3)nc2)cc1 [Example 75, N,N-dimethyl-4-(6-((5-(2-oxoimidazolidin-1-yl)pyridin-3-yl)amino)pyridin-3-yl)benzamide]",10 to 100
16,"CN(C)C(=O)C#Cc1ccc(Nc2cccnc2)nc1 [Example 4, N,N-dimethyl-3-(6-(pyridin-3-ylamino)pyridin-3-yl)propiolamide]",> 1000
17,"CC(=O)Nc1cncc(Nc2ccc(-c3ccc(C(=O)N(C)C)cc3)cn2)c1 [Example 31, 4-(6-((5-acetamidopyridin-3-yl)amino)pyridin-3-yl)-N,N-dimethylbenzamide]",10 to 100

row,SMILES,IC50 [nM]
1,"CN(C)C(=O)c1ccc(-c2ccc(Nc3cc[nH]c(=O)c3)nc2)cc1 [Example 221, N,N-dimethyl-4-(6-((2-oxo-1,2-dihydropyridin-4-yl)amino)pyridin-3-yl)benzamide]",> 1000
2,"CN(C)C(=O)c1ccc(-c2ccc(Nc3cncc(N4CCN(Cc5cscn5)C4=O)c3)nc2)cc1 [Example 78, N,N-dimethyl-4-(6-((5-(2-oxo-3-(thiazol-4-ylmethyl)imidazolidin-1-yl)pyridin-3-yl)amino)pyridin-3-yl)benzamide]",1 to 10
3,"CN(C)C(=O)c1ccc(-c2ccc(Nc3cncc(N4CCN(C)C4=O)c3)nc2)cc1 [Example 72, N,N-dimethyl-4-(6-((5-(3-methyl-2-oxoimidazolidin-1-yl)pyridin-3-yl)amino)pyridin-3-yl)benzamide]",10 to 100
4,"CN(C)C(=O)c1ccc(-c2ccc(Nc3cncc(N4CCCC4=O)c3)nc2)cc1F [Example 12, 2-fluoro-N,N-dimethyl-4-(6-((5-(2-oxopyrrolidin-1-yl)pyridin-3-yl)amino)pyridin-3-yl)benzamide]",10 to 100
5,"CC(C)S(=O)(=O)N(C)c1cncc(Nc2ccc(-c3ccc(C(=O)N(C)C)cc3)cn2)c1 [Example 26, N,N-dimethyl-4-(6-((5-(N-methylpropan-2-ylsulfonamido)pyridin-3-yl)amino)pyridin-3-yl)benzamide]",10 to 100
6,"CN(C)C(=O)c1ccc(-c2ccc(Nc3cncc(N4CCN(CC5CCCO5)C4=O)c3)nc2)cc1 (stereo not shown) [Example 77, N,N-dimethyl-4-(6-((5-(2-oxo-3-((tetrahydrofuran-2-yl)methyl)imidazolidin-1-yl)pyridin-3-yl)amino)pyridin-3-yl)benzamide]",10 to 100
7,"CN(Cc1ccccc1)C(=O)c1ccc(-c2ccc(Nc3cccnc3)nc2)cc1 [Example 67, N-benzyl-N-methyl-4-(6-(pyridin-3-ylamino)pyridin-3-yl)benzamide]",100 to 1000
8,"Cc1cc(C(=O)N(C)C)ccc1-c1ccc(Nc2cccnc2)nc1 [Example 2, N,N,3-trimethyl-4-(6-(pyridin-3-ylamino)pyridin-3-yl)benzamide]",> 1000
9,"CN(C)C(=O)c1ccc(-c2ccc(Nc3cncc(N4Cc5ccccc5C4=O)c3)nc2)cc1 [Example 53, N,N-dimethyl-4-(6-((5-(1-oxoisoindolin-2-yl)pyridin-3-yl)amino)pyridin-3-yl)benzamide]",10 to 100
10,"CN(C)C(=O)c1ccc(-c2ccc(Nc3cncc(C4(C(N)=O)CC4)c3)nc2)cc1 [Example 41, 4-(6-((5-(1-carbamoylcyclopropyl)pyridin-3-yl)amino)pyridin-3-yl)-N,N-dimethylbenzamide]",100 to 1000
11,"CN(C)C(=O)c1ccc(-c2ccc(Nc3cncc(N4CCN(Cc5cccnc5)C4=O)c3)nc2)cc1 [Example 76, N,N-dimethyl-4-(6-((5-(2-oxo-3-(pyridin-3-ylmethyl)imidazolidin-1-yl)pyridin-3-yl)amino)pyridin-3-yl)benzamide]",1 to 10
12,"COc1ncc(Nc2ccc(-c3ccc(C(=O)N(C)C)cc3)cn2)cn1 [Example 34, 4-(6-((2-methoxypyrimidin-5-yl)amino)pyridin-3-yl)-N,N-dimethylbenzamide]",100 to 1000
13,"COc1cncc(Nc2ccc(-c3ccc(C(=O)N(C)C)cc3)cn2)c1 [Example 39, 4-(6-((5-methoxypyridin-3-yl)amino)pyridin-3-yl)-N,N-dimethylbenzamide]",100 to 1000
14,"COc1ccc(CN2CCN(c3cncc(Nc4ccc(-c5ccc(C(=O)N(C)C)cc5)cn4)c3)C2=O)cc1 [Example 74, 4-(6-((5-(3-(4-methoxybenzyl)-2-oxoimidazolidin-1-yl)pyridin-3-yl)amino)pyridin-3-yl)-N,N-dimethylbenzamide]",1 to 10
15,"Cc1cc(Nc2cccnc2)ncc1-c1ccc(C(=O)N(C)C)cc1 [Example 16, N,N-dimethyl-4-(4-methyl-6-(pyridin-3-ylamino)pyridin-3-yl)benzamide]",100 to 1000
16,"CN(C)C(=O)c1ccc(-c2ccc(Nc3cncc(CCN4CCOCC4)c3)nc2)cc1 [Example 48, N,N-dimethyl-4-(6-((5-(2-morpholinoethyl)pyridin-3-yl)amino)pyridin-3-yl)benzamide]",100 to 1000
17,"CN(C)C(=O)c1ccc(-c2cnc(Nc3cccnc3)nc2)cc1 [Example 264, N,N-dimethyl-4-(2-(pyridin-3-ylamino)pyrimidin-5-yl)benzamide]",100 to 1000
